The source of these data is patent US20050222054A1, “Combination comprising a CDK inhibitor and doxorubicin” (Cyclacel Limited, priority 2002, published 2005).

Entries after “also recorded” stand apart in the source; their conditions may differ.

Data set [1] concerns osteosarcoma line SaOS-2 (pRb-deficient). The conditions noted are these: pRb-deficient SaOS-2, in combination with doxorubicin; not seen in SaOS-2 transfected with Rb; cited from earlier work.
The test system of a further data set is SK-UT-1 cells. Put plainly: Flow cytometry DNA cell cycle analysis. In kind it is cell-based, human. Particulars: 48 h treatment. (In general: Flow cytometry measures light scatter and fluorescence of single cells or particles in a stream.)
In data set [2] the test system is POMC (Rb deficient) tumours in POMC-Cre/POMC-Luc;Rb-flox/flox compound mutant mice. The conditions noted are these: doxorubicin 5 mg/kg intravenously once a week for four weeks; in the combination, roscovitine 500 mg/kg orally twice daily for two days before each doxorubicin. The source says:
A conditional mouse model for retinoblastoma-dependent sporadic cancer was generated (Vooijs et al; Cancer Res 2002 Mar 15; 62(6): 1862-7; 2002) which permits non-invasive monitoring of pituitary tumour development in live animals via in vivo bioluminescence imaging of luciferase expression. This mouse model permits the longitudinal monitoring of tumour onset, progression and response to therapeutic agents that specifically target the retinoblastoma pathway. By way of summary, a retinoblastoma conditional KO line was crossed with a POMC-Cre/POMC-Luciferase transgenic line to generate POMC-Cre/POMC-Luc;Rb-flox/flox compound mutant mice. These mice develop POMC (Rb deficient) tumours (Vooijs et al, ibid) and as illustrated in FIG. 3.
In this study, doxorubicin was administered once a week for four weeks (5 mg/kg; intravenously).

For `CN1CC[C@H](c2c(O)cc(O)c3c(=O)cc(-c4ccccc4Cl)oc23)[C@H](O)C1` [flavopiridol], the “sensitisation to the cytotoxic effects of doxorubicin” value in data set [1] is given as “significantly sensitised”.

For `CC[C@H](CO)Nc1nc(NCc2ccccc2)c2ncn(C(C)C)c2n1` [Roscovitine, 6-benzylamino-2-[(R)-1-ethyl-2-hydroxyethylamino]-9-isopropylpurine], in the data set with SK-UT-1 cells, the “% of total, G1” value is on record as 36%; the “% of total, G2M” value was 19%; the “% of total, Go” value was 23%; the “% of total, S” value is recorded as 16%.

On to `COc1cccc2c1C(=O)c1c(O)c3c(c(O)c1C2=O)C[C@@](O)(C(=O)CO)C[C@@H]3O[C@H]1C[C@H](N)[C@H](O)[C@H](C)O1` [Doxo], for which, in the data set with SK-UT-1 cells, the “% of total, G1” value was 9%; the “% of total, G2M” value came to 43%; the “% of total, Go” value was 22%; the “% of total, S” value is given as 18%. Further, in data set [2], the “tumour response (bioluminescence)” value is recorded as “delay tumorigenesis; also recorded: temporarily halts tumour progression”.
